Source: US12617744B2, “Production method for reduced coenzyme Q10 form-II type crystal or crystalline solid thereof” (KANEKA CORPORATION, priority 2021, dated 2026)

Legend:
[1] = Evaluation of slurry filterability by constant pressure filtration (average specific filtration resistance); assay type: physicochemical; conditions: slurry cooled to 1° C., filtrate volume 200 mL, filtration pressure 0.1 hPa
Procedure: The slurries obtained in Examples and Comparative Example were subjected to constant pressure filtration with a filtrate volume of 200 mL and a filtration pressure of 0.1 hPa and the filtration rate was measured. The average specific filtration resistance (αav) was calculated and used for the evaluation of filterability.

[2] = Median diameter measurement with particle size distribution analyzer; assay type: physicochemical; conditions: reduced coenzyme Q10 crystal obtained; Partica LA-960
Procedure: The median diameters of reduced coenzyme Q10 crystals obtained in Examples and Comparative Example were measured using the device described below. • Particle size distribution analyzer: Partica LA-960 <Percentage of Form II Crystal in Reduced Coenzyme Q10 Crystal>

[3] = Saturation concentration of crystal forms in alcohol; assay type: physicochemical; conditions: Form II crystal compared with Form I crystal
Excerpt: The alcohol is preferably a monohydric alcohol having 1 to 5 carbon atoms. Examples of a monohydric alcohol having 1 to 5 carbon atoms include methanol, ethanol, n-propanol, isopropanol, n-butanol, isobutanol, and n-pentanol. As the alcohol, ethanol is particularly preferable because the saturation concentration of Form II crystal is sufficiently lower than the saturation concentration of Form I crystal and is easy to handle. As the alcohol, those exemplified above may be used alone, or two or more thereof may be mixed and used.

[4] = compared with conventional reduced coenzyme Q10 Form I crystal; cited from earlier work
[5] = compared with oxidized coenzyme Q10; cited from earlier work

Structure (SMILES) | average specific filtration resistance (αav) [1] | Median diameter [2] [μm] | saturation concentration in an alcohol [3] | stability of crystal form [4] | oral absorbability [5]
COc1c(O)c(C)c(C/C=C(\C)CC/C=C(\C)CC/C=C(\C)CC/C=C(\C)CC/C=C(\C)CC/C=C(\C)CC/C=C(\C)CC/C=C(\C)CC/C=C(\C)CCC=C(C)C)c(O)c1OC [Example 3, reduced coenzyme Q10] | 0.48×10^10 m/kg | 107.3 |  |  | 
COc1c(O)c(C)c(C/C=C(\C)CC/C=C(\C)CC/C=C(\C)CC/C=C(\C)CC/C=C(\C)CC/C=C(\C)CC/C=C(\C)CC/C=C(\C)CC/C=C(\C)CCC=C(C)C)c(O)c1OC [reduced coenzyme Q10 Form II crystal, reduced coenzyme Q10] |  |  | lower than the saturation concentration of a Form I crystal | much more stable than the conventional reduced coenzyme Q10 | 
COc1c(O)c(C)c(C/C=C(\C)CC/C=C(\C)CC/C=C(\C)CC/C=C(\C)CC/C=C(\C)CC/C=C(\C)CC/C=C(\C)CC/C=C(\C)CC/C=C(\C)CCC=C(C)C)c(O)c1OC [Comparative Example 1, reduced coenzyme Q10] | 3.4×10^10 m/kg | 68.2 |  |  | 
COc1c(O)c(C)c(C/C=C(\C)CC/C=C(\C)CC/C=C(\C)CC/C=C(\C)CC/C=C(\C)CC/C=C(\C)CC/C=C(\C)CC/C=C(\C)CC/C=C(\C)CCC=C(C)C)c(O)c1OC [Example 2, reduced coenzyme Q10] | 0.98×10^10 m/kg | 87.6 |  |  | 
COc1c(O)c(C)c(C/C=C(\C)CC/C=C(\C)CC/C=C(\C)CC/C=C(\C)CC/C=C(\C)CC/C=C(\C)CC/C=C(\C)CC/C=C(\C)CC/C=C(\C)CCC=C(C)C)c(O)c1OC [Example 1, reduced coenzyme Q10] | 0.47×10^10 m/kg | 115.3 |  |  | 
COc1c(O)c(C)c(C/C=C(\C)CC/C=C(\C)CC/C=C(\C)CC/C=C(\C)CC/C=C(\C)CC/C=C(\C)CC/C=C(\C)CC/C=C(\C)CC/C=C(\C)CCC=C(C)C)c(O)c1OC [reduced coenzyme Q10] |  |  |  |  | higher oral absorbability than that of oxidized coenzyme Q10
